In ChEMBL document CHEMBL1155673, “Yanucamides A and B, two new depsipeptides from an assemblage of the marine cyanobacteria Lyngbya majuscula and Schizothrix species” (J Nat Prod, 2000) one finds LD50 data, which are given here for two molecules.

This data set deals with Artemia salina. In words: Toxicity against Artemia salina after 24 hrs. To be noted: in vivo. The format is organism-based.

On to `C#CCCCC1OC(=O)CCNC(=O)[C@@H](Cc2ccccc2)N(C)C(=O)[C@H](C(C)C)OC(=O)[C@H]([C@H](C)CC)NC(=O)C1(C)C` (some centres not stated) [YANUCAMIDE B], for which the LD50 is on record as 5 ppm.

On to `C#CCCCC1OC(=O)CCNC(=O)[C@@H](Cc2ccccc2)N(C)C(=O)[C@H](C(C)C)OC(=O)[C@H](C(C)C)NC(=O)C1(C)C` (some centres not stated) [YANUCAMIDE A], for which the LD50 is given as 5 ppm.
